Experimental data as given in patent US20120295907A1, “INSECTICIDAL COMPOUNDS” (SYNGENTA CROP PROTECTION, LLC, priority 2009, published 2012).
Where two headings read alike, the source gives them in different places.

What was measured:
Type in all cases: in vivo
Thrips tabaci = Thrips tabaci (Onion Thrips) sunflower leaf disc spray test; conditions: foliar, 168 h, 200 ppm spray on sunflower leaf discs, population of mixed ages, 7 days, mortality
Plutella xylostella = Plutella xylostella (Diamond Back Moth) artificial diet MTP test; conditions: 144 h, 200 ppm (concentration in well 18 ppm), L2 larvae, 6 days, larval mortality, growth regulation
Myzus persicae = Myzus persicae (Green Peach Aphid) sunflower leaf disc spray test; conditions: foliar, 144 h, 200 ppm spray on sunflower leaf discs, aphid population of mixed ages, 6 DAT, mortality
Spodoptera littoralis = Spodoptera littoralis (Egyptian Cotton Leafworm) cotton leaf disc spray test; conditions: foliar, 72 h, 200 ppm spray on cotton leaf discs, L1 larvae, mortality, feeding behavior, growth regulation 3 DAT
Heliothis virescens = Heliothis virescens (Tobacco Budworm) egg test on artificial diet; conditions: 96 h, 200 ppm (concentration in well 18 ppm), eggs 0-24 h old on artificial diet, 4 days, egg mortality, larval mortality, growth regulation
Diabrotica balteata = Diabrotica balteata (Corn Root Worm) artificial diet MTP test; conditions: 120 h, 200 ppm (concentration in well 18 ppm), L2 larvae, 5 days, larval mortality, growth regulation
Tetranychus urticae = Tetranychus urticae (Two-Spotted Spider Mite) bean leaf disc spray test; conditions: foliar, 192 h, read-out: control of Tetranychus urticae
[1] = 200 ppm spray on bean leaf discs, mite populations of mixed ages, 8 days, egg, larval and adult mortality

Measured: pest or weed control at 200 ppm

COc1c(NC(=O)c2ccsc2)cccc1C(=O)Nc1c(Cl)cc(C(F)(C(F)(F)F)C(F)(F)C(F)(F)F)cc1Br (stereo not shown) [B124]
≥ 80%: Thrips tabaci | Plutella xylostella | Myzus persicae | Spodoptera littoralis | Heliothis virescens

COc1c(NC(=O)c2ccc(C(F)(F)F)nc2C)cccc1C(=O)Nc1c(Cl)cc(C(F)(C(F)(F)F)C(F)(F)C(F)(F)F)cc1Br (stereo not shown) [B127]
≥ 80%: Diabrotica balteata | Tetranychus urticae; [1] | Thrips tabaci | Plutella xylostella | Spodoptera littoralis | Heliothis virescens

COc1c(NC(=O)c2sc(C)nc2C(F)(F)F)cccc1C(=O)Nc1c(Cl)cc(C(F)(C(F)(F)F)C(F)(F)C(F)(F)F)cc1Br (stereo not shown) [B134]
≥ 80%: Diabrotica balteata | Tetranychus urticae; [1] | Thrips tabaci | Plutella xylostella | Spodoptera littoralis | Heliothis virescens

COc1c(NC(=O)c2ccc(Br)cc2Cl)cccc1C(=O)Nc1c(Cl)cc(C(F)(C(F)(F)F)C(F)(F)C(F)(F)F)cc1Br (stereo not shown) [B135]
≥ 80%: Diabrotica balteata | Tetranychus urticae; [1] | Thrips tabaci | Plutella xylostella | Spodoptera littoralis | Heliothis virescens

COc1c(NC(=O)c2ccc([N+](=O)[O-])cc2C(F)(F)F)cccc1C(=O)Nc1c(Cl)cc(C(F)(C(F)(F)F)C(F)(F)C(F)(F)F)cc1Br (stereo not shown) [B178]
≥ 80%: Diabrotica balteata | Tetranychus urticae; [1] | Thrips tabaci | Plutella xylostella | Spodoptera littoralis | Heliothis virescens

COc1c(NC(=O)c2ccc([N+](=O)[O-])cc2[N+](=O)[O-])cccc1C(=O)Nc1c(Cl)cc(C(F)(C(F)(F)F)C(F)(F)C(F)(F)F)cc1Br (stereo not shown) [B180]
≥ 80%: Diabrotica balteata | Tetranychus urticae | Thrips tabaci | Plutella xylostella | Spodoptera littoralis | Heliothis virescens

COc1c(NC(=O)c2cccc([N+](=O)[O-])c2Cl)cccc1C(=O)Nc1c(Cl)cc(C(F)(C(F)(F)F)C(F)(F)C(F)(F)F)cc1Br (stereo not shown) [B183]
≥ 80%: Diabrotica balteata | Tetranychus urticae; [1] | Thrips tabaci | Plutella xylostella | Spodoptera littoralis | Heliothis virescens

COc1c(NC(=O)c2cccc(Cl)c2Cl)cccc1C(=O)Nc1c(Cl)cc(C(F)(C(F)(F)F)C(F)(F)C(F)(F)F)cc1Br (stereo not shown) [B184]
≥ 80%: Diabrotica balteata | Tetranychus urticae; [1] | Thrips tabaci | Plutella xylostella | Spodoptera littoralis | Heliothis virescens

COc1c(NC(=O)c2ccc([N+](=O)[O-])c(F)c2)cccc1C(=O)Nc1c(Cl)cc(C(F)(C(F)(F)F)C(F)(F)C(F)(F)F)cc1Br (stereo not shown) [B192]
≥ 80%: Diabrotica balteata | Tetranychus urticae; [1] | Thrips tabaci | Plutella xylostella | Spodoptera littoralis | Heliothis virescens

COc1c(NC(=O)c2ccc(C#N)cc2C)cccc1C(=O)Nc1c(Cl)cc(C(F)(C(F)(F)F)C(F)(F)C(F)(F)F)cc1Cl (stereo not shown) [C2, N-[2,6-dichloro-4-(1,2,2,3,3,3-hexafluoro-1-trifluoromethylpropyl)phenyl]-3-(4-cyano-2-methylbenzoylamino)-2-methoxybenzamide]
≥ 80%: Diabrotica balteata | Tetranychus urticae; [1] | Thrips tabaci | Plutella xylostella | Spodoptera littoralis | Heliothis virescens

COc1c(NC(=O)c2ccc([N+](=O)[O-])cc2)cccc1C(=O)Nc1c(Cl)cc(C(F)(C(F)(F)F)C(F)(F)C(F)(F)F)cc1Cl (stereo not shown) [C7]
≥ 80%: Diabrotica balteata | Tetranychus urticae; [1] | Thrips tabaci | Plutella xylostella | Spodoptera littoralis | Heliothis virescens

COc1c(NC(=O)c2ccc(F)cc2C)cccc1C(=O)Nc1c(Cl)cc(C(F)(C(F)(F)F)C(F)(F)C(F)(F)F)cc1Cl (stereo not shown) [C9]
≥ 80%: Diabrotica balteata | Tetranychus urticae; [1] | Thrips tabaci | Plutella xylostella | Spodoptera littoralis | Heliothis virescens

COc1c(NC(=O)c2ccc([N+](=O)[O-])cc2Cl)cccc1C(=O)Nc1c(Cl)cc(C(F)(C(F)(F)F)C(F)(F)C(F)(F)F)cc1Cl (stereo not shown) [C11]
≥ 80%: Diabrotica balteata | Tetranychus urticae; [1] | Thrips tabaci | Plutella xylostella | Spodoptera littoralis | Heliothis virescens

COc1c(NC(=O)c2ccc(OC(F)(F)F)cc2)cccc1C(=O)Nc1c(Cl)cc(C(F)(C(F)(F)F)C(F)(F)C(F)(F)F)cc1Cl (stereo not shown) [C13]
≥ 80%: Diabrotica balteata | Tetranychus urticae; [1] | Thrips tabaci | Plutella xylostella | Spodoptera littoralis | Heliothis virescens

COc1c(NC(=O)c2ccccc2)cccc1C(=O)Nc1c(Cl)cc(C(F)(C(F)(F)F)C(F)(F)C(F)(F)F)cc1Cl (stereo not shown) [C18]
≥ 80%: Thrips tabaci | Plutella xylostella | Myzus persicae | Spodoptera littoralis | Heliothis virescens

COc1c(NC(=O)c2ccccc2C(F)(F)F)cccc1C(=O)Nc1c(Cl)cc(C(F)(C(F)(F)F)C(F)(F)C(F)(F)F)cc1Cl (stereo not shown) [C20]
≥ 80%: Diabrotica balteata | Tetranychus urticae; [1] | Thrips tabaci | Plutella xylostella | Spodoptera littoralis | Heliothis virescens

COc1c(NC(=O)c2snnc2C)cccc1C(=O)Nc1c(Cl)cc(C(F)(C(F)(F)F)C(F)(F)C(F)(F)F)cc1Cl (stereo not shown) [C21]
≥ 80%: Diabrotica balteata | Tetranychus urticae; [1] | Thrips tabaci | Plutella xylostella | Spodoptera littoralis | Heliothis virescens

COc1c(NC(=O)c2cccc(F)c2F)cccc1C(=O)Nc1c(Cl)cc(C(F)(C(F)(F)F)C(F)(F)C(F)(F)F)cc1Cl (stereo not shown) [C22]
≥ 80%: Diabrotica balteata | Tetranychus urticae; [1] | Thrips tabaci | Plutella xylostella | Spodoptera littoralis | Heliothis virescens

COc1c(NC(=O)c2ccc(F)cc2F)cccc1C(=O)Nc1c(Cl)cc(C(F)(C(F)(F)F)C(F)(F)C(F)(F)F)cc1Cl (stereo not shown) [C23]
≥ 80%: Diabrotica balteata | Tetranychus urticae; [1] | Thrips tabaci | Plutella xylostella | Spodoptera littoralis | Heliothis virescens

COc1c(NC(=O)c2ccc(F)cc2C)cccc1C(=O)Nc1c(Cl)cc(C(F)(C(F)(F)F)C(F)(F)F)cc1Cl [E7]
≥ 80%: Diabrotica balteata | Tetranychus urticae; [1] | Thrips tabaci | Plutella xylostella | Spodoptera littoralis | Heliothis virescens

COc1c(NC(=O)c2ccc(F)cc2Cl)cccc1C(=O)Nc1c(Cl)cc(C(F)(C(F)(F)F)C(F)(F)F)cc1Cl [E19]
≥ 80%: Diabrotica balteata | Tetranychus urticae; [1] | Thrips tabaci | Plutella xylostella | Spodoptera littoralis | Heliothis virescens

COc1c(NC(=O)c2snnc2C)cccc1C(=O)Nc1c(Cl)cc(C(F)(C(F)(F)F)C(F)(F)F)cc1Cl [E20]
≥ 80%: Diabrotica balteata | Tetranychus urticae; [1] | Thrips tabaci | Plutella xylostella | Spodoptera littoralis | Heliothis virescens

COc1c(NC(=O)c2cccc(C#N)c2)cccc1C(=O)Nc1c(C)cc(C(F)(C(F)(F)F)C(F)(F)C(F)(F)F)cc1C (stereo not shown) [F21]
≥ 80%: Diabrotica balteata | Tetranychus urticae; [1] | Thrips tabaci | Plutella xylostella | Spodoptera littoralis | Heliothis virescens

COc1c(NC(=O)c2ccc([N+](=O)[O-])cc2)cccc1C(=O)Nc1c(C)cc(C(F)(C(F)(F)F)C(F)(F)C(F)(F)F)cc1C (stereo not shown) [F29]
≥ 80%: Diabrotica balteata | Tetranychus urticae; [1] | Thrips tabaci | Plutella xylostella | Spodoptera littoralis | Heliothis virescens

COCc1cc(C(F)(C(F)(F)F)C(F)(F)C(F)(F)F)cc(Cl)c1NC(=O)c1cccc(NC(=O)c2ccc(C#N)cc2C)c1OC (stereo not shown) [H1]
≥ 80%: Plutella xylostella | Myzus persicae | Heliothis virescens

COc1c(NC(=O)c2c(F)cc(F)cc2F)cccc1C(=O)Nc1c(C)cc(C(F)(C(F)(F)F)C(F)(F)F)cc1C [K1]
≥ 80%: Diabrotica balteata | Tetranychus urticae; [1] | Thrips tabaci | Plutella xylostella | Spodoptera littoralis | Heliothis virescens
